In this experiment the target is Growth factor receptor-bound protein 2 (Homo sapiens, UniProt P62993). The experiment can be described thus: Inhibition of Grb2-SH2 domain binding to phospho-EGF receptor intracellular C-terminal domain. The class given is cell-based.
Chain of Growth factor receptor-bound protein 2 (P62993 whole entry, the tested form may be a part): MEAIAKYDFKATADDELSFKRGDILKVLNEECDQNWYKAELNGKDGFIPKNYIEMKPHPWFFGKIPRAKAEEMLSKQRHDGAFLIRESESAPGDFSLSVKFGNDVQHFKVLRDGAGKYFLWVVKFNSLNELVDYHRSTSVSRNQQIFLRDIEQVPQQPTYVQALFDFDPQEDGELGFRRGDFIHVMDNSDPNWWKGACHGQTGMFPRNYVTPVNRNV
As usually defined, the IC50 is the concentration that inhibits the measured activity by half. Low values mean inhibition by little substance, high ones a need for much substance. As to `CC(=O)N[C@@H](Cc1ccc(CP(=O)(O)C(O)c2ccccc2)cc1)C(=O)NC1(C(=O)N[C@@H]2CCCC[C@@H]2C(N)=O)CCCCC1` (stereo partly specified), the IC50 came out at 530 nM. In turn, `CC(=O)N[C@@H](Cc1ccc(CP(C)(=O)O)cc1)C(=O)NC1(C(=O)N[C@@H]2CCCC[C@@H]2C(N)=O)CCCCC1` displayed an IC50 of 25500 nM. For `CC(=O)N[C@@H](Cc1ccc(CP(=O)(O)CCO)cc1)C(=O)NC1(C(=O)N[C@@H]2CCCC[C@@H]2C(N)=O)CCCCC1` the value was 1600 nM; for `CC(=O)N[C@@H](Cc1ccc(CP(=O)(O)CO)cc1)C(=O)NC1(C(=O)N[C@@H]2CCCC[C@@H]2C(N)=O)CCCCC1`, 7600 nM. The compound `CC(=O)N[C@@H](Cc1ccc(CP(=O)(O)Cc2ccccc2)cc1)C(=O)NC1(C(=O)N[C@@H]2CCCC[C@@H]2C(N)=O)CCCCC1` displayed a concentration for half-maximal inhibition (IC50) of 1200 nM. For `CC(=O)N[C@@H](Cc1ccc(CP(=O)(O)O)cc1)C(=O)NC1(C(=O)N[C@@H]2CCCC[C@@H]2C(N)=O)CCCCC1` the value was 700 nM.

Values taken from ChEMBL document CHEMBL1132781, “Structure-based design and synthesis of phosphinate isosteres of phosphotyrosine for incorporation in Grb2-SH2 domain inhibitors. Part 1” (Bioorg Med Chem Lett, 2000).
